In patent US9302999B2, “Substituted triazoles as herbicides” (E. I. DU PONT DE NEMOURS AND COMPANY, priority 2012, dated 2016):

Columns and labels:
Assay type in all cases: in vivo
[1] = test system: barnyardgrass (Echinochloa crus-galli); assay: Test A pre-/postemergence: barnyardgrass
Summary of the method: (§1)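 Seeds were sown in loam/sand blend and sprayed preemergence (directed soil spray) and, simultaneously, postemergence at 2–10 cm, one- to two-leaf stage, using compounds in non-phytotoxic solvent with surfactant. After ~10 days in greenhouse, injury was rated visually versus untreated controls, 0 (no effect) to 100 (complete control).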

[2] = test system: crabgrass, large (large crabgrass, Digitaria sanguinalis); assay: Test A pre-/postemergence: crabgrass, large
Summary of the method: as §1

[3] = test system: foxtail, giant (giant foxtail, Setaria faberii); assay: Test A pre-/postemergence: foxtail, giant
Summary of the method: as §1

[4] = test system: morningglory (Ipomoea spp.); assay: Test A pre-/postemergence: morningglory
Summary of the method: as §1

[5] = test system: pigweed (Amaranthus retroflexus); assay: Test A pre-/postemergence: pigweed
Summary of the method: as §1

[6] = test system: velvetleaf (Abutilon theophrasti); assay: Test A pre-/postemergence: velvetleaf
Summary of the method: as §1

[7] = test system: wheat (Triticum aestivum); assay: Test A pre-/postemergence: wheat
Summary of the method: as §1

[8] = test system: corn (Zea mays); assay: Test A pre-/postemergence: corn
Summary of the method: as §1

[9] = test system: rice (Oryza sativa); assay: Test B flooded paddy: rice; details: Flood, applied to paddy water at 2-leaf stage, visually evaluated after 13 to 15 days
Method: (§2) Seeds selected from rice (Oryza sativa), sedge, umbrella (small-flower umbrella sedge Cyperus difformis), ducksalad (Heteranthera limosa), and barnyardgrass (Echinochloa crus-galli) were grown to the 2-leaf stage for testing. At time of treatment, test pots were flooded to 3 cm above the soil surface, treated by application of test compounds directly to the paddy water, and then maintained at that water depth for the duration of the test.
(§3) Treated plants and controls were maintained in a greenhouse for 13 to 15 days, after which time all species were compared to controls and visually evaluated. Plant response ratings, summarized in Table B, are based on a scale of 0 to 100 where 0 is no effect and 100 is complete control. A dash (-) response means no test result.

[10] = test system: sedge, umbrella (small-flower umbrella sedge Cyperus difformis); assay: Test B flooded paddy: sedge, umbrella; details: Flood, applied to paddy water at 2-leaf stage, visually evaluated after 13 to 15 days
Method: as §2, §3

[11] = test system: ducksalad (Heteranthera limosa); assay: Test B flooded paddy: ducksalad; details: Flood, applied to paddy water at 2-leaf stage, visually evaluated after 13 to 15 days
Method: as §2, §3

[12] = test system: barnyardgrass (Echinochloa crus-galli); assay: Test B flooded paddy: barnyardgrass; details: Flood, applied to paddy water at 2-leaf stage, visually evaluated after 13 to 15 days
Method: as §2, §3

[13] = Postemergence, 125 g ai/ha, 0 to 100 scale, 0 is no effect, 100 is complete control
[14] = Postemergence, 500 g ai/ha, visual rating on 0 to 100 scale (0 no effect, 100 complete control), approximately ten days
[15] = Preemergence, 125 g ai/ha, 0 to 100 scale where 0 is no effect and 100 is complete control
[16] = Preemergence, 500 g ai/ha, 0 to 100 scale (0 no effect, 100 complete control)
[17] = Postemergence, 500 g ai/ha, 0 to 100 scale, 0 is no effect, 100 is complete control

SMILES	Plant response rating, Barnyardgrass [1, 15]	Plant response rating, Barnyardgrass [1, 16]	Plant response rating, Crabgrass, Large [2, 15]	Plant response rating, Crabgrass, Large [2, 16]	Plant response rating, Foxtail, Giant [3, 15]	Plant response rating, Foxtail, Giant [3, 16]	Plant response rating, Morningglory [4, 13]	Plant response rating, Morningglory [4, 15]	Plant response rating, Morningglory [4, 16]	Plant response rating, Pigweed [5, 13]	Plant response rating, Pigweed [5, 15]	Plant response rating, Pigweed [5, 16]	Plant response rating, Velvetleaf [6, 13]	Plant response rating, Velvetleaf [6, 15]	Plant response rating, Velvetleaf [6, 16]	Plant response rating, Wheat [7, 13]	Plant response rating, Wheat [7, 15]	Plant response rating, Wheat [7, 16]	Plant response rating, Corn [8, 15]	Plant response rating, Corn [8, 16]	other results
O=C(c1ccnc(C(F)(F)F)c1)c1nn(-c2ccc(F)cc2)nc1F [Compound 158]	0	0	0	0	0	0	0	0	0	10	0	0	0	0	0	0	0	0	0	0	Plant response rating, Barnyardgrass [1, 13]: 0; Barnyardgrass plant response rating [1, 14]: 0; Plant response rating, Crabgrass, Large [2, 13]: 0; Crabgrass, Large plant response rating [2, 14]: 20; Plant response rating, Foxtail, Giant [3, 13]: 0; Foxtail, Giant plant response rating [3, 14]: 0; Morningglory plant response rating [4, 14]: 10; Pigweed plant response rating [5, 14]: 80; Velvetleaf plant response rating [6, 14]: 0; Wheat plant response rating [7, 14]: 0; Plant response rating, Corn [8, 13]: 0; Corn plant response rating [8, 14]: 20; Plant response rating, Rice (0 to 100 scale, 0 is no effect, 100 is complete control) ([9]; 250 g ai/ha): 75; Plant response rating, Sedge, Umbrella (0 to 100 scale, 0 is no effect, 100 is complete control) ([10]; 250 g ai/ha): 0; Plant response rating, Ducksalad (0 to 100 scale, 0 is no effect, 100 is complete control) ([11]; 250 g ai/ha): 0; Plant response rating, Barnyardgrass (0 to 100 scale, 0 is no effect, 100 is complete control) ([12]; 250 g ai/ha): 0
CC(C)Cc1nn(-c2ccc(C(F)(F)F)cc2)nc1Oc1ccnc(C(F)F)c1 [Compound 187]	0	0	0	0	0	0	0	0	0	0	0	0	0	0	0	0	0	0	0	0	Plant response rating, Barnyardgrass [1, 13]: 0; Barnyardgrass plant response rating [1, 17]: 0; Plant response rating, Crabgrass, Large [2, 13]: 0; Crabgrass, Large plant response rating [2, 17]: 0; Plant response rating, Foxtail, Giant [3, 13]: 0; Foxtail, Giant plant response rating [3, 17]: 0; Morningglory plant response rating [4, 17]: 0; Pigweed plant response rating [5, 17]: 0; Velvetleaf plant response rating [6, 17]: 0; Wheat plant response rating [7, 17]: 0; Plant response rating, Corn [8, 13]: 0; Corn plant response rating [8, 17]: 0; Plant response rating, Rice (0 to 100 scale, 0 is no effect, 100 is complete control) ([9]; 125 g ai/ha): 0; Plant response rating, Sedge, Umbrella (0 to 100 scale, 0 is no effect, 100 is complete control) ([10]; 125 g ai/ha): 0; Plant response rating, Ducksalad (0 to 100 scale, 0 is no effect, 100 is complete control) ([11]; 125 g ai/ha): 0; Plant response rating, Barnyardgrass (0 to 100 scale, 0 is no effect, 100 is complete control) ([12]; 125 g ai/ha): 0
CCc1nn(-c2cccc(C(F)(F)F)c2)nc1Cc1cccc(C(F)(F)F)c1 [Compound 143]	30	90	90	100	90	100	50	0	0	100	100	100	40	0	20	10	0	10	0	20	Barnyardgrass plant response rating [1, 13]: 20; Barnyardgrass plant response rating [1, 14]: 50; Crabgrass, Large plant response rating [2, 13]: 80; Crabgrass, Large plant response rating [2, 14]: 100; Foxtail, Giant plant response rating [3, 13]: 80; Foxtail, Giant plant response rating [3, 14]: 100; Morningglory plant response rating [4, 14]: 90; Pigweed plant response rating [5, 14]: 100; Velvetleaf plant response rating [6, 14]: 80; Wheat plant response rating [7, 14]: 40; Corn plant response rating [8, 13]: 40; Corn plant response rating [8, 14]: 50; Plant response rating, Rice (0 to 100 scale, 0 is no effect, 100 is complete control) ([9]; 250 g ai/ha): 30; Plant response rating, Sedge, Umbrella (0 to 100 scale, 0 is no effect, 100 is complete control) ([10]; 250 g ai/ha): 75; Plant response rating, Ducksalad (0 to 100 scale, 0 is no effect, 100 is complete control) ([11]; 250 g ai/ha): 0; Plant response rating, Barnyardgrass (0 to 100 scale, 0 is no effect, 100 is complete control) ([12]; 250 g ai/ha): 40
